Assay results: ChEMBL document CHEMBL5331046, “Disulfiram and dithiocarbamate analogues demonstrate promising antischistosomal effects” (Eur J Med Chem, 2022)
The source made the active and inactive calls. The rule behind the calls is not given here.

Tests used:
Schistosoma mansoni [1] = assay: Antischistosomal activity against Schistosoma mansoni couples assessed as decrease in parasite vitality at 25 uM measured upto 72 hrs by bright field microscopy; type: functional, organism-based
Schistosoma mansoni [2] = assay: Antischistosomal activity against Schistosoma mansoni couples assessed as tissue structural changes at 25 uM measured upto 72 hrs by bright field microscopy; type: functional, organism-based
Schistosoma mansoni [3] = assay: Antischistosomal activity against Schistosoma mansoni couples assessed as inhibition of eggs production at 25 uM measured upto 72 hrs by bright field microscopy; type: functional
Schistosoma mansoni [4] = assay: Antischistosomal activity against Schistosoma mansoni couples assessed as decrease in parasite motility at 25 uM measured upto 72 hrs by bright field microscopy; type: functional; design: scale not given: the % may be the effect or the level left
HepG2 [5] = assay: Cytotoxicity against human HepG2 cells assessed as reduction in cell vaibility at 100 uM by WST-1 assay; type: toxicity, cell-based; conditions: hepg2, 100 µM
Schistosoma mansoni [6] = assay: Antischistosomal activity against Schistosoma mansoni couples at 100 uM measured upto 72 hrs by bright field microscopy; type: functional, organism-based
Schistosoma mansoni [7] = assay: Antischistosomal activity against Schistosoma mansoni couples assessed as gut dilations at 25 uM measured upto 72 hrs by bright field microscopy; type: functional, organism-based
Schistosoma mansoni [8] = assay: Antischistosomal activity against Schistosoma mansoni couples assessed as couple separation at 25 uM measured upto 72 hrs by bright field microscopy; type: functional, organism-based
LS174T [9] = assay: Cytotoxicity against human LS174T cells assessed as reduction in cell viability at 100 uM by WST-1 assay; type: toxicity, cell-based
LS174T [10] = assay: Cytotoxicity against human LS174T cells assessed as reduction in cell vaibility upto 50 uM by WST-1 assay; type: toxicity, cell-based
HepG2 [11] = assay: Cytotoxicity against human HepG2 cells assessed as reduction in cell viability upto 50 uM by WST-1 assay; type: toxicity, cell-based; conditions: hepg2, 50 µM
Schistosoma mansoni [12] = assay: Antischistosomal activity against Schistosoma mansoni couples at 5 uM measured upto 72 hrs by bright field microscopy; type: functional, organism-based
Schistosoma mansoni [13] = assay: Antischistosomal activity against Schistosoma mansoni couples assessed as decrease in parasite vitality at 5 uM measured upto 72 hrs by bright field microscopy; type: functional, organism-based
Schistosoma mansoni [14] = assay: Antischistosomal activity against Schistosoma mansoni couples assessed as tegument damage at 50 uM measured upto 72 hrs by bright field microscopy; type: functional, organism-based
Schistosoma mansoni [15] = assay: Antischistosomal activity against Schistosoma mansoni couples assessed as intestinal dilations and tegument damage at 25 uM measured upto 72 hrs by bright field microscopy; type: functional, organism-based
Schistosoma mansoni [16] = assay: Antischistosomal activity against Schistosoma mansoni couples assessed as tegument damage at 25 uM measured upto 72 hrs by bright field microscopy; type: functional, organism-based
Schistosoma mansoni [17] = assay: Antischistosomal activity against Schistosoma mansoni couples assessed as reduction in pairing stability at 50 uM measured upto 72 hrs by bright field microscopy; type: functional, organism-based
Schistosoma mansoni [18] = assay: Antischistosomal activity against Schistosoma mansoni couples assessed as reduction in pairing stability at 25 uM measured upto 72 hrs by bright field microscopy; type: functional
Schistosoma mansoni [19] = assay: Antischistosomal activity against Schistosoma mansoni couples assessed as decrease in parasite motility at 10 uM measured upto 72 hrs by bright field microscopy; type: functional, organism-based
Schistosoma mansoni [20] = assay: Antischistosomal activity against Schistosoma mansoni couples assessed as inhibition of eggs production at 5 uM measured upto 72 hrs by bright field microscopy; type: functional
Schistosoma mansoni [21] = assay: Antischistosomal activity against Schistosoma mansoni couples assessed as inhibition of eggs production at 50 uM measured upto 72 hrs by bright field microscopy; type: functional, organism-based
Schistosoma mansoni [22] = assay: Antischistosomal activity against Schistosoma mansoni couples assessed as gut dilations at 50 uM measured upto 72 hrs by bright field microscopy; type: functional, organism-based
Schistosoma mansoni [23] = assay: Antischistosomal activity against Schistosoma mansoni couples assessed as decrease in pairing stability at 5 uM measured upto 72 hrs by bright field microscopy; type: functional
Schistosoma mansoni [24] = assay: Antischistosomal activity against Schistosoma mansoni couples assessed as intestinal dilations and tegument damage at 50 uM measured upto 72 hrs by bright field microscopy; type: functional, organism-based
HepG2 [25] = assay: Cytotoxicity against human HepG2 cells assessed as reduction in cell viability upto 100 uM by WST-1 assay; type: toxicity, cell-based; conditions: hepg2, 100 µM
Schistosoma mansoni [26] = assay: Antischistosomal activity against Schistosoma mansoni couples assessed as couple separation at 10 uM measured upto 72 hrs by bright field microscopy; type: functional
Schistosoma mansoni [27] = assay: Antischistosomal activity against Schistosoma mansoni couples assessed as decrease in parasite vitality at 10 uM measured upto 72 hrs by bright field microscopy; type: functional; design: scale not given: the % may be the effect or the level left
LS174T [28] = assay: Cytotoxicity against human LS174T cells assessed as reduction in cell vaibility upto 100 uM by WST-1 assay; type: toxicity, cell-based
Schistosoma mansoni [29] = assay: Antischistosomal activity against Schistosoma mansoni couples at 25 uM measured upto 72 hrs by bright field microscopy; type: functional, organism-based
Schistosoma mansoni [30] = assay: Antischistosomal activity against Schistosoma mansoni couples at 50 uM measured upto 72 hrs by bright field microscopy; type: functional, organism-based
Schistosoma mansoni [31] = assay: Antischistosomal activity against Schistosoma mansoni couples assessed as decrease in parasite motility at 100 uM measured upto 72 hrs by bright field microscopy; type: functional; design: scale not given: the % may be the effect or the level left
Schistosoma mansoni [32] = assay: Antischistosomal activity against Schistosoma mansoni couples assessed as tegument damage at 100 uM measured upto 72 hrs by bright field microscopy; type: functional, organism-based

SMILES: CN(C)CCN1CCN(C(=S)SCc2ccc([N+](=O)[O-])cc2)CC1
- Activity (Schistosoma mansoni [1]): Active
- Activity (Schistosoma mansoni [2]): Active
- Activity (Schistosoma mansoni [3]): Active
- Activity (Schistosoma mansoni [4]): 55%
- Activity (HepG2 [5]): Toxic
- Activity (Schistosoma mansoni [6]): Active
- Activity (Schistosoma mansoni [7]): Active
- Activity (Schistosoma mansoni [8]): Active
- Activity (LS174T [9]): Toxic

SMILES: CCN(CC)C(=S)SCc1cc(=O)oc2cc(OC)ccc12
- Activity (LS174T [10]): Non-Toxic
- Activity (HepG2 [11]): Non-Toxic
- Activity (Schistosoma mansoni [12]): Active

SMILES: CCN(CC)C(=S)SCc1ccc([N+](=O)[O-])cc1
- Activity (Schistosoma mansoni [13]): Active
- Activity (Schistosoma mansoni [14]): Active
- Activity (Schistosoma mansoni [15]): Active
- Activity (Schistosoma mansoni [16]): Active
- Activity (Schistosoma mansoni [17]): Active
- Activity (Schistosoma mansoni [18]): Active
- Activity (Schistosoma mansoni [3]): Active
- Activity (Schistosoma mansoni [19]): Active
- Activity (Schistosoma mansoni [20]): Active
- Activity (Schistosoma mansoni [7]): Active
- Activity (Schistosoma mansoni [21]): Active
- Activity (Schistosoma mansoni [22]): Active
- Activity (Schistosoma mansoni [23]): Active
- Activity (Schistosoma mansoni [24]): Active

SMILES: CCN(CC)C(=S)SCC1CCCCC1
- Activity (HepG2 [25]): Non-Toxic
- Activity (Schistosoma mansoni [26]): 60%
- Activity (Schistosoma mansoni [4]): 35%
- Activity (Schistosoma mansoni [27]): 90%
- Activity (LS174T [28]): Non-Toxic

SMILES: CCN(CC)C(=S)SCc1ccc(S(C)(=O)=O)cc1
- Activity (Schistosoma mansoni [29]): inactive
- Activity (Schistosoma mansoni [30]): Active
- Activity (Schistosoma mansoni [31]): ~60%
- Activity (Schistosoma mansoni [32]): Active
